Laboratory results: a compilation of properties of binary mixtures (doi:10.1021/je950317s)

Assay: excess molar enthalpy (molar enthalpy of mixing); xn = mol fraction of the nth substance listed
Settings: 100 kPa

Work on `Cl/C=C\Cl` + CC(C)CC(C)(C)C yielded an excess molar enthalpy (293.15 K, x1 = 0.2119) of 0.596 kJ/mol, an excess molar enthalpy (293.15 K, x1 = 0.3627) of 0.873 kJ/mol and an excess molar enthalpy (293.15 K, x1 = 0.4911) of 0.952 kJ/mol. It also gave an excess molar enthalpy (293.15 K, x1 = 0.5812) of 0.946 kJ/mol, an excess molar enthalpy (293.15 K, x1 = 0.6622) of 0.878 kJ/mol and an excess molar enthalpy (293.15 K, x1 = 0.7314) of 0.785 kJ/mol. The excess molar enthalpy (293.15 K, x1 = 0.8061) was 0.649 kJ/mol, the excess molar enthalpy (293.15 K, x1 = 0.8696) was 0.484 kJ/mol and the excess molar enthalpy (293.15 K, x1 = 0.9434) was 0.237 kJ/mol.

`Cl/C=C\Cl` + CCCCCCCCCC gave an excess molar enthalpy (293.15 K, x1 = 0.2397) of 0.715 kJ/mol, an excess molar enthalpy (293.15 K, x1 = 0.4025) of 1.06 kJ/mol and an excess molar enthalpy (293.15 K, x1 = 0.6996) of 0.999 kJ/mol. It also gave an excess molar enthalpy (293.15 K, x1 = 0.7635) of 0.883 kJ/mol and an excess molar enthalpy (293.15 K, x1 = 0.9492) of 0.277 kJ/mol.

With `Cl/C=C/Cl` + CC(C)CC(C)(C)C the excess molar enthalpy (293.15 K, x1 = 0.1328) was 0.217 kJ/mol, the excess molar enthalpy (293.15 K, x1 = 0.1885) was 0.285 kJ/mol and the excess molar enthalpy (293.15 K, x1 = 0.2561) was 0.386 kJ/mol. For the same compound, the excess molar enthalpy (293.15 K, x1 = 0.3253) was 0.466 kJ/mol, the excess molar enthalpy (293.15 K, x1 = 0.415) was 0.519 kJ/mol and the excess molar enthalpy (293.15 K, x1 = 0.4532) was 0.545 kJ/mol. For the same compound, the excess molar enthalpy (293.15 K, x1 = 0.4584) was 0.561 kJ/mol, the excess molar enthalpy (293.15 K, x1 = 0.5167) was 0.591 kJ/mol and the excess molar enthalpy (293.15 K, x1 = 0.5332) was 0.577 kJ/mol. For the same compound, the excess molar enthalpy (293.15 K, x1 = 0.5571) was 0.577 kJ/mol, the excess molar enthalpy (293.15 K, x1 = 0.5777) was 0.583 kJ/mol and the excess molar enthalpy (293.15 K, x1 = 0.6055) was 0.582 kJ/mol. The excess molar enthalpy (293.15 K, x1 = 0.6468) was 0.563 kJ/mol, the excess molar enthalpy (293.15 K, x1 = 0.6554) was 0.556 kJ/mol and the excess molar enthalpy (293.15 K, x1 = 0.6658) was 0.547 kJ/mol. It also gave an excess molar enthalpy (293.15 K, x1 = 0.6824) of 0.545 kJ/mol, an excess molar enthalpy (293.15 K, x1 = 0.6926) of 0.53 kJ/mol and an excess molar enthalpy (293.15 K, x1 = 0.8092) of 0.417 kJ/mol. The excess molar enthalpy (293.15 K, x1 = 0.8404) was 0.366 kJ/mol, the excess molar enthalpy (293.15 K, x1 = 0.8988) was 0.259 kJ/mol and the excess molar enthalpy (293.15 K, x1 = 0.9517) was 0.138 kJ/mol.

`Cl/C=C/Cl` + CCCCCCCCCCCC gave an excess molar enthalpy (293.15 K, x1 = 0.086) of 0.169 kJ/mol, an excess molar enthalpy (293.15 K, x1 = 0.1183) of 0.209 kJ/mol and an excess molar enthalpy (293.15 K, x1 = 0.1952) of 0.382 kJ/mol. For the same compound, the excess molar enthalpy (293.15 K, x1 = 0.2658) was 0.48 kJ/mol, the excess molar enthalpy (293.15 K, x1 = 0.354) was 0.63 kJ/mol and the excess molar enthalpy (293.15 K, x1 = 0.4354) was 0.733 kJ/mol. The excess molar enthalpy (293.15 K, x1 = 0.5034) was 0.797 kJ/mol, the excess molar enthalpy (293.15 K, x1 = 0.5297) was 0.793 kJ/mol and the excess molar enthalpy (293.15 K, x1 = 0.5654) was 0.809 kJ/mol. For the same compound, the excess molar enthalpy (293.15 K, x1 = 0.5792) was 0.797 kJ/mol, the excess molar enthalpy (293.15 K, x1 = 0.637) was 0.797 kJ/mol and the excess molar enthalpy (293.15 K, x1 = 0.6708) was 0.782 kJ/mol. It also gave an excess molar enthalpy (293.15 K, x1 = 0.6712) of 0.796 kJ/mol, an excess molar enthalpy (293.15 K, x1 = 0.6857) of 0.776 kJ/mol and an excess molar enthalpy (293.15 K, x1 = 0.7145) of 0.761 kJ/mol. For the same compound, the excess molar enthalpy (293.15 K, x1 = 0.7213) was 0.747 kJ/mol, the excess molar enthalpy (293.15 K, x1 = 0.7547) was 0.724 kJ/mol and the excess molar enthalpy (293.15 K, x1 = 0.7676) was 0.693 kJ/mol. It also gave an excess molar enthalpy (293.15 K, x1 = 0.8276) of 0.586 kJ/mol, an excess molar enthalpy (293.15 K, x1 = 0.8799) of 0.448 kJ/mol and an excess molar enthalpy (293.15 K, x1 = 0.9289) of 0.296 kJ/mol. For the same compound, the excess molar enthalpy (293.15 K, x1 = 0.9652) was 0.159 kJ/mol.

In the case of `Cl/C=C\Cl` + CCCCCCC, the excess molar enthalpy (313.15 K, x1 = 0.0572) is reported as 0.203 kJ/mol, the excess molar enthalpy (313.15 K, x1 = 0.2014) is reported as 0.62 kJ/mol and the excess molar enthalpy (313.15 K, x1 = 0.3465) is reported as 0.912 kJ/mol. It also gave an excess molar enthalpy (313.15 K, x1 = 0.4595) of 1.02 kJ/mol, an excess molar enthalpy (313.15 K, x1 = 0.5694) of 1.01 kJ/mol and an excess molar enthalpy (313.15 K, x1 = 0.6673) of 0.925 kJ/mol. The excess molar enthalpy (313.15 K, x1 = 0.7579) was 0.767 kJ/mol, the excess molar enthalpy (313.15 K, x1 = 0.8409) was 0.572 kJ/mol and the excess molar enthalpy (313.15 K, x1 = 0.9317) was 0.273 kJ/mol.

With `Cl/C=C\Cl` + CCCCCCCCCCCCCCCC the excess molar enthalpy (293.15 K, x1 = 0.5093) was 1.39 kJ/mol, the excess molar enthalpy (293.15 K, x1 = 0.6348) was 1.5 kJ/mol and the excess molar enthalpy (293.15 K, x1 = 0.714) was 1.48 kJ/mol. The excess molar enthalpy (293.15 K, x1 = 0.7791) was 1.36 kJ/mol, the excess molar enthalpy (293.15 K, x1 = 0.8308) was 1.18 kJ/mol and the excess molar enthalpy (293.15 K, x1 = 0.8823) was 0.953 kJ/mol. For the same compound, the excess molar enthalpy (293.15 K, x1 = 0.9221) was 0.703 kJ/mol and the excess molar enthalpy (293.15 K, x1 = 0.9676) was 0.334 kJ/mol.

In the case of `Cl/C=C/Cl` + CCCCCCCCCCCCCCCC, the excess molar enthalpy (293.15 K, x1 = 0.0735) is reported as 0.147 kJ/mol, the excess molar enthalpy (293.15 K, x1 = 0.1873) is reported as 0.395 kJ/mol and the excess molar enthalpy (293.15 K, x1 = 0.3532) is reported as 0.699 kJ/mol. The excess molar enthalpy (293.15 K, x1 = 0.4326) was 0.804 kJ/mol, the excess molar enthalpy (293.15 K, x1 = 0.5287) was 0.887 kJ/mol and the excess molar enthalpy (293.15 K, x1 = 0.5819) was 0.932 kJ/mol. The excess molar enthalpy (293.15 K, x1 = 0.6155) was 0.933 kJ/mol, the excess molar enthalpy (293.15 K, x1 = 0.6514) was 0.921 kJ/mol and the excess molar enthalpy (293.15 K, x1 = 0.7106) was 0.897 kJ/mol. For the same compound, the excess molar enthalpy (293.15 K, x1 = 0.7294) was 0.872 kJ/mol, the excess molar enthalpy (293.15 K, x1 = 0.7428) was 0.857 kJ/mol and the excess molar enthalpy (293.15 K, x1 = 0.7698) was 0.825 kJ/mol. For the same compound, the excess molar enthalpy (293.15 K, x1 = 0.7846) was 0.81 kJ/mol, the excess molar enthalpy (293.15 K, x1 = 0.8008) was 0.77 kJ/mol and the excess molar enthalpy (293.15 K, x1 = 0.8578) was 0.636 kJ/mol. For the same compound, the excess molar enthalpy (293.15 K, x1 = 0.8776) was 0.575 kJ/mol, the excess molar enthalpy (293.15 K, x1 = 0.8951) was 0.523 kJ/mol and the excess molar enthalpy (293.15 K, x1 = 0.9485) was 0.297 kJ/mol. The excess molar enthalpy (293.15 K, x1 = 0.9795) was 0.128 kJ/mol.
